According to patent publication US4042695A, “Thiaxanthene derivatives, compositions thereof and methods of treating therewith” (priority 1972, dated 1977):
Structures can show the parent of a compound that is named as a salt. Where two headings read alike, the source gives them in different places.

What was measured:
NMRI male mice = experiment: Methylphenidate antagonism in mice; format: in vivo; conditions: for ED50: Mus musculus, ip
Experimental: 1. As animals were used NMRI male mice weighing 18-25 grams.
3 × 2 or 5 × 2 mice are used for each dose level. Thirty minutes, 1 hour, 2 hours, 3 hours etc. after i.p. injection of test substance, methylphenidate, 60 mg/kg, is injected s.c. At each time interval separate groups of mice were used. After administration of methylphenidate the mice are placed in the observation cages, 2 in each cage, where they remain for 1 hour. The cages are placed on corrugated paper, the corrugations facing upwards. It is examined whether or not the mice have been biting the corrugated paper. […] The peak effect was determined for the test substances and also for a number of known neuroleptics.

[1] = Catalepsy-inducing effect in rats; format: in vivo, male Wistar rats; conditions: rat, in vivo, sc
Experimental: (§1) Reference is made to L. Juluo: "On the Interaction between Neuroleptics and Antiparkinson Drugs." Modern Problems of Pharmacopsychiatry, vol. 5, pg, 50-54. The test may be described as follows:
(§2) Five animals are used at each dose level.
(§3) The test compound is injected subcutaneously (s.c.)
(§4) Injection volume is 5 ml of the vehicle/kg b.w.
(§5) Except when otherwise stated saline is used as vehicle.
(§6) The animals are placed in the middle of a vertical wire netting (50 cm/49 cm) 60, 120, 180, 240, 300 and 360 minutes after injection of the test compound.
(§7) The animals are considered cataleptic when they remain immobile during a period of 15 seconds. This cataleptic reaction is designated: + (plus). Untreated animals climb normally up and down the wire netting. The absence of catalepsy is designated: - (minus). The results are expressed as fractions as follows: 0/5, 1/5, 2/5, 3/5, 4/5 and 5/5 in which 0, 1, 2, 3,4 and 5 represent the number of cataleptic animals out of five animals tested.

male Wistar rats = experiment: Catalepsy-inducing effect in rats; format: in vivo; conditions: catalepsy (rats) / methylphenidate antagonism peak effect (mice)
Experimental: as §1, §2, §3, §4, §5, §6, §7

[2] = pure α-isomers of known neuroleptics; cited from earlier work
[3] = tested on: adult purebred Beagle dogs; experiment: Apomorphine antagonism in dogs; format: in vivo
From the text: Especially when testing esters of the compounds of Formula I it has been found advantageous to use the wellrecognized test which is based upon the fact that strong neuroleptics antagonize apomorphine induced vomiting in dogs. The test is described by P. A. J. Janssen, C. J. E. Niemegeers and K. H. L. Schellehaus: "Is it possible to predict the clinical effects of neuroleptic drugs (major tranquillizers) from animal data" ?, Part II, Arzneimittel Forschung, 15, 1196-1206, 1965. In order to evaluate esters of the compounds of Formula I a modified method is described by M. Nymark et al. in Acta pharmacol. et toxicol. 1973, 33, 363-376. The test may be described shortly as follows:
As animals were used adult purebred Beagle dogs of either sex. The threshold-dose of apomorphine hydrochloride for the induction of vomiting in the dogs has been determined to be 0.025 mg/kg intravenously. After this dose vomiting occurs within a few minutes of the injection. Four dogs were used for each dose level of the drug, which was injected subcutaneously at the back of the neck. At different times after the drug administration the dogs were then challenged with apomorphine according to an "up-and-down" schedule using the dose-range 0.025- 0.400 mg/kg intravenously geometrically spaced. […] In this way it was possible to estimate at which level of apomorphine the dogs were protected at a given time. The dogs were fed half an hour before testing to ensure an easy vomiting.

rats = experiment: Antagonism of amphetamine-induced stereotyped behaviour in rats; format: in vivo
Experimental: The modification used by us was as follows:
The animals were then placed in individual cages. […] The absence of stereotypy was interpreted as a drug effect. ED50 values for protection against stereotypy were determined. All compounds were tested at a minimum of three dose levels using 10 rats per dose, and the observer was kept unaware of the identity of the groups until after the experiment.

[4] = mice, i.p., 24 h after injection, read-out: Methylphenidate antagonism ED50, 24 h
[5] = mice, i.p., peak effect, methylphenidate 60 mg/kg s.c., read-out: Methylphenidate antagonism, peak effect ED50
[6] = rats, s.c., dose producing catalepsy in 50% of the animals, read-out: Catalepsy ED50 max.
[7] = read-out: Methylphenidate antagonism, peak effect ED50

SMILES | ED50 (NMRI male mice; [4]) [mg/kg] | ED50 (NMRI male mice; [5]) [mg/kg] | Ratio Cat./Meth (catalepsy/methylphenidate antagonism) (male Wistar rats) | ED50 [1, 6] [mg/kg] | also measured
OCCN1CCN(CCCC2c3ccc(F)cc3Sc3ccc(C(F)(F)F)cc32)CC1 (stereo not drawn) [Substance 1] | 1.66 | 0.04 | – | – | ED50 [1]: 0.9 mg/kg
CN1CCN(CCCC2c3ccc(F)cc3Sc3ccc(C(F)(F)F)cc32)CC1 (stereo not drawn) [Substance 2, 2-trifluoromethyl-6-fluoro-9-(3-(4-methyl-1-piperazinyl)propyl)thiaxanthene] | > 10 | 0.3 | 10 | 3.1 | duration of peak effect (NMRI male mice; mice, i.p.): > 5 h
OCCN1CCN(CCCC2c3ccc(F)cc3Sc3ccc(Cl)cc32)CC1 (stereo not drawn) [Substance 3, 2-chloro-6-fluoro-9-(3-(4-(2-hydroxyethyl)-1-piperazinyl)propyl)-thiaxanthene] | 7.1 | 0.8 | 3.4 | 2.7 | duration of peak effect (NMRI male mice; mice, i.p.): > 5 h
CN1CCN(CCCC2c3ccc(F)cc3Sc3ccc(S(=O)(=O)N(C)C)cc32)CC1 (stereo not drawn) [Substance 4, 2-dimethylsulfamoyl-6-fluoro-9-(3-(4-methylpiperazine-1-yl)propyl)-thiaxanthene] | > 5 | 1 | 3.1 | 3.1 | –
CN1CCN(CCC=C2c3ccc(F)cc3Sc3ccc(S(=O)(=O)N(C)C)cc32)CC1 [Substance 5, 2-dimethylsulfamoyl-6-fluoro-9-(3-(4-methylpiperazine-1-yl)propylidene)-thiaxanthene] | > 10 | 0.4 | 2.5 | 1 | duration of peak effect (NMRI male mice; mice, i.p.): > 5 h
OCCN1CCN(CCC=C2c3ccc(F)cc3Sc3ccc(C(F)(F)F)cc32)CC1 [Substance 6] | 0.24 | 0.05 | – | 0.12 | –
OCCN1CCN(CCC=C2c3ccc(F)cc3Sc3ccc(Cl)cc32)CC1 [Substance 7] | > 10 | 0.4 | 5 | 2 | duration of peak effect (NMRI male mice; mice, i.p.): > 5 h
OCCN1CCN(CCCC2c3ccc(Cl)cc3Sc3ccc(C(F)(F)F)cc32)CC1 (stereo not drawn) [Substance 8, reference compound] | – | 4 | > 5 | > 20 | –
OCCN1CCN(CCCC2c3cc(C(F)(F)F)ccc3Sc3c(Cl)cccc32)CC1 (stereo not drawn) [Substance 9, reference compound] | – | 14 | 1.5 | > 20 | –
OCCN1CCN(CCCC2c3cc(C(F)(F)F)ccc3Sc3c2cccc3C(F)(F)F)CC1 (stereo not drawn) [Substance 10, reference compound] | – | > 10 | – | > 20 | –
OCCN1CCN(CCCC2c3ccc(C(F)(F)F)cc3Sc3ccc(C(F)(F)F)cc32)CC1 (stereo not drawn) [Substance 11, reference compound] | – | > 10 | – | > 20 | –
CN(C)S(=O)(=O)c1ccc2c(c1)C(=CCCN1CCC(CCO)CC1)c1ccc(F)cc1S2 [Substance 12, 2-Dimethylsulfamoyl-6-fluoro-9-(3-(4-(2-hydroxyethyl)-1-piperidyl)propylidene)-thiaxanthene] | > 10 | 0.87 | 0.8 | 0.69 | –
OCCC1CCN(CCC=C2c3ccc(F)cc3Sc3ccc(C(F)(F)F)cc32)CC1 [Substance 13] | – | – | – | 0.05 | ED50 (NMRI male mice; 24 h, read-out: Methylphenidate antagonism ED50, 24 h): 0.03 mg/kg; ED50 (NMRI male mice; [7]): 0.03 mg/kg
OCCC1CCN(CCCC2c3ccc(F)cc3Sc3ccc(C(F)(F)F)cc32)CC1 (stereo not drawn) [Substance 14, 2-Trifluoromethyl-6-fluoro-9-(3-(4-(2-hydroxyethyl)-1-piperidyl)propyl)-thiaxanthene] | 3.6 | 0.25 | 0.8 | 0.21 | –
OCCC1CCN(CCC=C2c3ccc(F)cc3Sc3ccc(Cl)cc32)CC1 [Substance 15, 2-chloro-6-fluoro-9-(3-(4-(2-hydroxyethyl)piperidin-1-yl)propylidene)thiaxanthene] | 0.27 | 0.08 | 0.9 | 0.07 | –
CN1CCN(CC/C=C2/c3ccccc3Sc3ccc(S(=O)(=O)N(C)C)cc32)CC1 [Thiothixene, reference compound] | > 40 | 0.4 | 0.14 | – | activity of the α-isomer relative to the β-isomer (in words) [2]: most active isomers; ED50 [1]: 0.06 mg/kg
CN1CCc2cccc3c2[C@H]1Cc1ccc(O)c(O)c1-3 [apomorphine hydrochloride, reference compound] | – | – | – | – | minimal effective dose ([3]; Canis lupus familiaris, iv, intravenously, read-out: threshold-dose for the induction of vomiting): 0.025 mg/kg
CCCCCCCCCCCCCCCCCCCCCC(=O)OCCC1CCN(CCC=C2c3ccc(F)cc3Sc3ccc(C(F)(F)F)cc32)CC1 [behenic acid ester of Lu 12-331, behenic acid ester of the alpha-isomer of 2-trifluoromethyl-6-fluoro-9-(3-(4-(2-hydroxyethyl)-1-piperidyl)propylidene)-thiaxanthene] | – | – | – | – | sedation compared with the palmitic acid ester ([3]; 1 mg/kg subcutaneously as Lu 12-331, first week): less sedation in the first week; duration of maximal protection ([3]; 1.6 mg/kg s.c. of ester): 15 days; time after which the effect had disappeared ([3]; 1.6 mg/kg s.c. of ester): 26 days; maximal protection against apomorphine ([3]; 1.6 mg/kg s.c. of ester ~ 1 mg/kg of Lu 12-331): 16 × threshold dose of apomorphine; protection against apomorphine 21 days after the injection ([3]; 1.6 mg/kg s.c. of ester, 21 days): ~ 12 × threshold dose; sedation ([3]; 1.6 mg/kg s.c. of ester, at any time): No sedation; duration of protection against amphetamine-induced stereotypies (rats; 5 mg/kg s.c.): 21 days; sedation (rats; 5 mg/kg s.c.): hardly any sedation
CN(C)CCCN1c2ccccc2Sc2ccc(Cl)cc21 [chlorpromazine, reference compound] | – | – | 1.0 | – | ED50 (NMRI male mice; [7]): 4 mg/kg; ED50 [1]: 4 mg/kg
CCCCCCCCCCCCCCCC(=O)OCCC1CCN(CCC=C2c3ccc(F)cc3Sc3ccc(C(F)(F)F)cc32)CC1 [palmitic acid ester of Lu 12-331, palmitic acid ester of the alpha-isomer of 2-trifluoromethyl-6-fluoro-9-(3-(4-(2-hydroxyethyl)-1-piperidyl)propylidene)-thiaxanthene] | – | – | – | – | sedation (rats; 2-5 mg/kg s.c.): pronounced sedation lasting for several days
CCCCCCCCCC(=O)OCCN1CCN(CC/C=C2/c3ccccc3Sc3ccc(C(F)(F)F)cc32)CC1 [reference compound] | – | – | – | – | day after the injection on which the effect had disappeared ([3]; 2 mg/kg s.c.): 11 days; degree of protection against apomorphine ([3]; 2 mg/kg s.c.): 3 × threshold dose
OCCN1CCN(CC/C=C2/c3ccccc3Sc3ccc(Cl)cc32)CC1 [α-Clopenthixol, reference compound] | > 40 | 0.7 | 0.7 | – | duration of peak effect (NMRI male mice; mice, i.p.): 5 h; activity of the α-isomer relative to the β-isomer (in words) [2]: most active isomers; ED50 [1]: 0.45 mg/kg
OCCN1CCN(CC/C=C2/c3ccccc3Sc3ccc(C(F)(F)F)cc32)CC1 [α-Flupenthixol, reference compound] | 17 | 0.07 | 1.74 | – | duration of peak effect (NMRI male mice; mice, i.p.): 6 h; activity of the α-isomer relative to the β-isomer (in words) [2]: most active isomers; ED50 [1]: 0.12 mg/kg
